Publication PMC4705659, “Functional dichotomy in the 16S rRNA (m^1A1408) methyltransferase family and control of catalytic activity via a novel tryptophan mediated loop reorganization” (Nucleic Acids Research, 2015)

Key:
CacKam [1] = target: T1, CacKam (Catenulispora acidiphila, UniProt C7Q5P8, W203A); experiment: biochemical; assay type: binding
T1 construct: gene Caci_9046; full length 250 residues, N-terminal hexahistidine tag with thrombin site kept; E. coli BL21 (DE3)
Source text: (§1) isothermal titration calorimetry on CacKam

CacKam [2] = target: T2, CacKam (Catenulispora acidiphila, UniProt C7Q5P8, W113F); experiment: biochemical; assay type: binding
T2 construct: gene Caci_9046; full length 250 residues, N-terminal hexahistidine tag with thrombin site kept; E. coli BL21 (DE3)
Source text: as §1

CacKam [3] = target: T3, CacKam (Catenulispora acidiphila, UniProt C7Q5P8); settings: 1 mM SAM; E. coli 30S subunits; 10 mM MgCl2; pH 7.5; 37 °C
T3 construct: gene Caci_9046

CacKam [4] = target: T4, CacKam (Catenulispora acidiphila, UniProt C7Q5P8, E94A); experiment: biochemical
T4 construct: gene Caci_9046

CacKam [5] = target: T5, CacKam (Catenulispora acidiphila, UniProt C7Q5P8, S201A); experiment: biochemical
T5 construct: gene Caci_9046
T5 sequence (C7Q5P8 entry or part of it S201A): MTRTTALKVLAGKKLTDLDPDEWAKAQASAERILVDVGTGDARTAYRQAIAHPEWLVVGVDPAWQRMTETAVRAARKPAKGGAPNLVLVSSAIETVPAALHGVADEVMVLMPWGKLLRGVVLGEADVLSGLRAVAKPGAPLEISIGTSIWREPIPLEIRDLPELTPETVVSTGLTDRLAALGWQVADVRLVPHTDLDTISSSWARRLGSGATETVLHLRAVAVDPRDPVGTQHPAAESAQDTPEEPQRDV

T1 sequence (C7Q5P8 entry or part of it W203A): as the sequence (C7Q5P8 entry or part of it S201A) above
T2 sequence (C7Q5P8 entry or part of it W113F): as the sequence (C7Q5P8 entry or part of it S201A) above
T4 sequence (C7Q5P8 entry or part of it E94A): as the sequence (C7Q5P8 entry or part of it S201A) above
T3 sequence (C7Q5P8 entry or part of it): as the sequence (C7Q5P8 entry or part of it S201A) above

| Compound | Kd (CacKam [1]) [µM] | Kd (CacKam [2]) [µM] | 30S methylation, reverse transcription primer extension (CacKam [3]) | Kd (CacKam [4]) [µM] | Kd (CacKam [5]) [µM] |
| --- | --- | --- | --- | --- | --- |
| Nc1ncnc2c1ncn2[C@@H]1O[C@H](CSCC[C@H](N)C(=O)O)[C@@H](O)[C@H]1O [SAH] | 5.1 | 11 |  |  |  |
| C[S+](CC[C@H](N)C(=O)O)C[C@H]1O[C@@H](n2cnc3c(N)ncnc32)[C@H](O)[C@@H]1O (stereo partly shown) [SAM] | 68 | 103 | Methylation by the wild-type enzyme was essentially the same under each condition as expected | 29 | 110 |
